Measurements reported in PMC12298351, “Novel 3,19-(N-Phenyl-3-(4-fluorophenyl)-pyrazole) Acetal of Andrographolide Promotes Cell Cycle Arrest and Apoptosis in MDA-MB-231 Breast Cancer Cells” (Pharmaceuticals, 2025).

Tests used:
[1] = DPPH radical scavenging assay; details: 25 µM test compound, 0.1 mM DPPH, acetonitrile, 30 min
Protocol: A stable free radical DPPH (2,2-Diphenyl-1-picrylhydrazyl) assay was employed to test the antioxidant activity of all the synthesized compounds. Concisely, 25 µM of the test compounds were dissolved in acetonitrile and combined with 0.1 mM of DPPH (in acetonitrile) in a 1:2 ratio (80 µL and 160 µL). Then, the mixture was left undisturbed in the dark for 30 min at room temperature. After 30 min, the absorbance of the solutions was instantly measured at 517 nm using a Varioskan Multiplate Reader (Thermo Fisher Scientific, Mumbai, India). Ascorbic acid (in acetonitrile) was used as the positive control, and andrographolide and isoandrogapholide (in acetonitrile) were used as the standards. The following equation was used to determine the DPPH radical scavenging activity:% Radical scavenging activity = (Ac − As)/Ac × 100 where Ac = the absorbance of the blank (DPPH solution), and As = the absorbance of the test samples

[2] = tested on: 60 human cancer cell lines; test: NCI single-dose study; format: cell-based; details: single dose 10 µM, all 60 cell lines
Source text: All the synthesized compounds (1a–1j and 2a–2j) were initially assessed for their anticancer potential at the National Cancer Institute (NCI, USA) against a diverse panel of 60 human cancer cell lines, representing nine distinct cancer types including leukemia, non-small-cell lung, colon, CNS, melanoma, ovarian, renal, prostate, and breast. The testing protocol employed by the NCI encompasses two stages: initial assessment at a single dose and subsequent evaluation at five doses.
Initially, a comprehensive anticancer screening of all twenty compounds (1a–1j and 2a–2j), including the parent compounds ADG and ISOADG, was conducted using a 10 µM dose across all 60 cell lines (a standardized protocol followed for the initial assessment of test compounds by the NCI). […] As a result, these ten compounds were chosen for five-dose studies.

For `CC12CC[C@@H]3[C@](C)(CO)[C@H](O)CC[C@@]3(C)[C@@H]1CC(C1=CCOC1=O)O2` (some centres unmarked) [ISOADG, isoandrographolide, reference compound], the “% DPPH radical scavenging activity” value [1] was 57.94% and the “% growth inhibition” value [2] was “lower % growth inhibition”.

With `C=C1CC[C@@H]2[C@](C)(CO)[C@H](O)CC[C@@]2(C)[C@@H]1C/C=C1/C(=O)OC[C@H]1O` [ADG, andrographolide] the “% DPPH radical scavenging activity” value [1] was 58.74% and the “% growth inhibition” value [2] was “lower % growth inhibition”.

For `O=C1O[C@H]([C@@H](O)CO)C(O)=C1O` [ascorbic acid, reference compound], the “% DPPH radical scavenging activity” value [1] was 69.26%.
